{
  "source": "patent US8367710B2",
  "about": "“Bicyclo-substituted pyrazolon azo derivatives, preparation process and pharmaceutical use thereof” (Jiangsu Hengrui Medicine Co. Ltd., priority 2008, dated 2013)",
  "key": {"[1]": {"assay": "Pharmacokinetics assay in rats after intragastric administration", "assay_type": "in vivo", "conditions": "both sexes, Sprague-Dawley, rat, plasma, po, SD rats, 5 mg/Kg; for Vd/F: read-out: Apparent Distribution Volume Vz/F; for CL/F: read-out: Clearance CL/F (converted); for AUC: read-out: Curve Area AUC; for half-life: read-out: Half-Life t½ (converted); for MRT: read-out: Mean Residence Time MRT; for Cmax: read-out: Plasma Conc. Cmax", "procedure": "Test Example 1: Pharmacokinetics assay of the compounds of the present disclosure\nThe pharmacokinetics of the compounds of the present disclosure was studied and evaluated in rats.\nThe test compound was diluted with 1% sodium carboxymethyl cellulose to 0.5 mg/mL (calculated as the free acid form) of suspension before use.\n24 healthy adult SD rats, male and female in half, were divided into […]. After an overnight fast, the rats were administered intragastrically at a dose of 5.0 mg/kg (calculated as the free acid form), at a volume of 10 mL/kg.\n24 healthy adult SD rats, male and female in half, were administered intragastrically at a dose of 5.0 mg/kg after an overnight fast. Blood samples (0.2 mL) were taken from eye socket at pre administration and at 0.5, 1.0, 2.0, 3.0, 4.0, 5.0, 6.0, 8.0, 11.0, 14.0, 24.0, 36.0 and 48.0 hours post administration, which were stored in heparinized tubes and centrifuged for 10 minutes at 3,500 rpm. The plasma samples were stored at −20° C. until analysis.\n50 μL of rat plasma, obtained at various time points after administration, 20 μL of internal standard solution and 20 μL of a solvent mixture of methanol and water (80:20, v/v) were mixed well, and then 150 μL of methanol was added to result in protein precipitation. Then the mixture was mixed for 1 minute using a vortexer and centrifuged for 10 minutes at 13,000 rpm. 20 μL of the supernatant was analyzed by LC/MS/MS.\n50 μL of blank plasma was spiked with a series of standard solutions to produce final concentrations of 1.0, 5.0, 25.0, 50.0, 100.0, 250.0, 500.0 ng/mL, followed by addition of 20 μL of internal standard solution, which was treated according to plasma sample pretreatment protocol. A typical calibration curve equation was obtained with plasma concentration as the abscissa and the chromatographic peak area ratio of sample to internal standard as the ordinate, using weighted least squares method (w=1/x^2) for linear regression.\nThe compartmental model of pharmacokinetics was fitted for the test compounds and the major pharmacokinetic parameters were calculated in which Cmax and tmax were the actually measured values."}, "human TPO receptor": {"target": "T1, human TPO receptor (Homo sapiens, UniProt P40238)", "T1 sequence (P40238 26-635)": "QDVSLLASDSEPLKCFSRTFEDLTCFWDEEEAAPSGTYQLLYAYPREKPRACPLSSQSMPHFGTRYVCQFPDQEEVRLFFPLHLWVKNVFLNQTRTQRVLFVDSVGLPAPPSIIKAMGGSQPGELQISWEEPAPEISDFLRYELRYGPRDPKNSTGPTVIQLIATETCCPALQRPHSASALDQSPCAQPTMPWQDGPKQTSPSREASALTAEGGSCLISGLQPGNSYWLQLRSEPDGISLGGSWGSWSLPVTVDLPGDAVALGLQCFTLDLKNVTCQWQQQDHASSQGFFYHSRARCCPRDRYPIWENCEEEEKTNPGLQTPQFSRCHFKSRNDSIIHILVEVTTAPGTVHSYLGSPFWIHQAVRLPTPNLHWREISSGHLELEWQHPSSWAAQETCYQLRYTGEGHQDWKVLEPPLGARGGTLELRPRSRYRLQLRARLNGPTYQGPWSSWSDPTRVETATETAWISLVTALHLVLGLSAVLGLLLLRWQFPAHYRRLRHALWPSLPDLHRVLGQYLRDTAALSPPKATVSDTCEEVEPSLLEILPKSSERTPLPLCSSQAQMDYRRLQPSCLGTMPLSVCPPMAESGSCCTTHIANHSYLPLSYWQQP", "assay": "pro-proliferation effect on BAF3-TPOR cell (CCK-8)", "assay_type": "cell-based, mouse", "conditions": "BAF3-TPOR cells, proliferation relative to rhTPO positive control", "procedure": "The sequence of primers which contains multi-sites mutation was designed as follows: […]\nThe E. coli DH5α competent cell was transformed with mutated plasmid, and positive colonies were picked up through ampicillin selection.\n(2) BAF3-TPOR stable transfected cell line: the following method was used to construct the BaF3 cell which stably over-expressed functional human TPO receptor. […] The stable transfected cells BAF3-TPOR were selected with G418 (Gibco, US), then incubated with RPMI1640 medium plus 10% FBS (Gibco, US), […] G418, 5 ng/mL, rmIL-3 (Chemicon, US).\n(1) Washing cells by centrifugation: a suitable amount of cell suspension was centrifuged at 1000 rpm for 5 minutes, and the supernatant was discarded. 10 mL of cell culture media without containing IL-3 was added. Then the resulting cell suspension was centrifuged at 1000 rpm for 5 minutes, and the supernatant was discarded.\n(2) 1 mL of cell culture media without containing IL-3 was added to beat upon them to equality, and the number of a suitable amount of cell suspension was counted after dilution.\n(3) According to the result of the cell counting, a cell suspension in a concentration of 100,000 cell/mL was prepared.\n(4) 100 μL of cell suspension was transferred to each well of 96-well culture plate, and there were 3 parallel wells, that is, there were a blank control group (B), a negative control group (N), a positive control group of TPO (P) and a test compound group (S).\n(5) The test compound was dissolved in DMSO to prepare a 10 mM stock solution, and then the solution was diluted with RPMI 1640 medium into a series of test samples at different concentration: 30 μM, 10 μM, 3 μM, 1 μM, 0.3 μM, 0.1 μM, 0.03 μM, 0.01 μM, 0.003 μM, 0.001 μM.\n(6) 10 μL of test compound solution was transferred to each well respectively; 1 μL of rhTPO (10 μg/mL) was added to positive control well.\n(7) The plates were incubated in an incubator at 5% CO2 and 37° C. for 24 hours.\n(9) OD value was detected at 450 nm by VICTOR3 (Perkin Elmer 1420-120) plate reader.\n(1) The proliferation rate was calculated as follows: Rate=[(S−B)/(P−B)]*100%\nS: OD value of wells which contains test compound.\nB: OD value of blank control wells\nP: OD value of positive control wells\n(2) The EC50 value was calculated by Origin 7.0 software."}},
  "data": [
    {"smiles": "CC1=NN(c2ccc(C)c(C)c2)C(=O)/C1=N\\Nc1cccc(-c2cccc(C(=O)O)c2)c1O", "note": "[Eltrombopag, eltrombopag, reference compound]", "values": [
      {"measurement": "Vd/F", "setting": "[1]", "result": "1.53 ± 0.26", "unit": "L/kg"},
      {"measurement": "CL/F", "setting": "[1]", "result": 0.18, "unit": "L/h/kg"},
      {"measurement": "AUC", "setting": "[1]", "result": "29 ± 3.82", "unit": "µg·h/mL"},
      {"measurement": "half-life", "setting": "[1]", "result": "6.11 ± 1.04", "unit": "h"},
      {"measurement": "MRT", "setting": "[1]", "result": "4.63 ± 1.03", "unit": "h"},
      {"measurement": "Cmax", "setting": "[1]", "result": "8.47 ± 0.95", "unit": "µg/mL"},
      {"measurement": "EC50", "setting": "human TPO receptor", "result": 0.299, "unit": "µM"}
    ]},
    {"smiles": "CC1=NN(c2ccc3c(c2)CCC3)C(=O)/C1=N\\Nc1cc(C)cc(-c2cccc(C(=O)O)c2)c1O", "note": "[Example 29, 2′-Hydroxy-3′-[N′-(1-indan-5-yl-3-methyl-5-oxo-1,5-dihydro-pyrazol-4-ylidene)-hydrazino]-5′-methyl-biphenyl-3-carboxylic acid]", "values": [
      {"measurement": "Vd/F", "setting": "[1]", "result": "0.77 ± 0.39", "unit": "L/kg"},
      {"measurement": "CL/F", "setting": "[1]", "result": 0.14, "unit": "L/h/kg"},
      {"measurement": "AUC", "setting": "[1]", "result": "44.8 ± 19.4", "unit": "µg·h/mL"},
      {"measurement": "half-life", "setting": "[1]", "result": "4.01 ± 0.63", "unit": "h"},
      {"measurement": "MRT", "setting": "[1]", "result": "4.29 ± 0.8", "unit": "h"},
      {"measurement": "Cmax", "setting": "[1]", "result": "13 ± 5.96", "unit": "µg/mL"},
      {"measurement": "EC50", "setting": "human TPO receptor", "result": 0.124, "unit": "µM"}
    ]},
    {"smiles": "CC1=NN(c2ccc3c(c2)CC(C)(C)C3)C(=O)/C1=N\\Nc1cccc(-c2ccc(C(=O)O)o2)c1O", "note": "[Example 45, 5-(3-{N′-[1-(2,2-Dimethyl-indan-5-yl)-3-methyl-5-oxo-1,5-dihydro-pyrazol-4-ylidene]-hydrazino}-2-hydroxy-phenyl)-furan-2-carboxylic acid]", "values": [
      {"measurement": "EC50", "setting": "human TPO receptor", "result": 0.13, "unit": "µM"}
    ]},
    {"smiles": "CC1=NN(c2ccc3c(c2)CCC3)C(=O)/C1=N\\Nc1cc(C)cc(-c2ccc(C(=O)O)o2)c1O", "note": "[Example 46, 5-{2-Hydroxy-3-[N′-(1-indan-5-yl-3-methyl-5-oxo-1,5-dihydro-pyrazol-4-ylidene)-hydrazino]-5-methyl-phenyl}-furan-2-carboxylic acid]", "values": [
      {"measurement": "EC50", "setting": "human TPO receptor", "result": 0.056, "unit": "µM"}
    ]},
    {"smiles": "CC1=NN(c2ccc3c(c2)CCCC3)C(=O)/C1=N\\Nc1cc(C)cc(-c2ccc(C(=O)O)o2)c1O", "note": "[Example 50, 5-(2-Hydroxy-5-methyl-3-{N′-[3-methyl-5-oxo-1-(5,6,7,8-tetrahydro-naphthalen-2-yl)-1,5-dihydro-pyrazol-4-ylidene]-hydrazino}-phenyl)-furan-2-carboxylic acid]", "values": [
      {"measurement": "EC50", "setting": "human TPO receptor", "result": 0.126, "unit": "µM"}
    ]},
    {"smiles": "CC1=NN(c2ccc3c(c2)CCCC3)C(=O)/C1=N\\Nc1cccc(-c2csc(C(=O)O)c2)c1O", "note": "[Example 51, 4-(2-Hydroxy-3-{N′-[3-methyl-5-oxo-1-(5,6,7,8-tetrahydro-naphthalen-2-yl)-1,5-dihydro-pyrazol-4-ylidene]-hydrazino}-phenyl)-thiophene-2-carboxylic acid]", "values": [
      {"measurement": "EC50", "setting": "human TPO receptor", "result": 0.055, "unit": "µM"}
    ]},
    {"smiles": "COC(=O)c1ccc(-c2cccc(N/N=C3\\C(=O)N(c4ccc5c(c4)CCCC5)N=C3C)c2O)o1", "note": "[Example 54, 5-(2-Hydroxy-3-{N′-[3-methyl-5-oxo-1-(5,6,7,8-tetrahydro-naphthalen-2-yl)-1,5-dihydro-pyrazol-4-ylidene]-hydrazino}-phenyl)-furan-2-carboxylic acid methyl ester]", "values": [
      {"measurement": "EC50", "setting": "human TPO receptor", "result": 0.133, "unit": "µM"}
    ]},
    {"smiles": "COC(=O)c1ccc(-c2cccc(N/N=C3\\C(=O)N(c4ccc5c(c4)CCC5)N=C3C)c2O)o1", "note": "[Example 55, 5-{2-hydroxy-3-[N′-(1-indan-5-yl-3-methyl-5-oxo-1,5-dihydro-pyrazol-4-ylidene)-hydrazino]-phenyl}-furan-2-carboxylic acid methyl ester]", "values": [
      {"measurement": "EC50", "setting": "human TPO receptor", "result": 0.071, "unit": "µM"}
    ]},
    {"smiles": "CC1=NN(c2ccc3c(c2)CC(C)(C)C3)C(=O)/C1=N\\Nc1cccc(-c2cccc(C(=O)O)c2)c1O", "note": "[Example 56, 3′-{N′-[1-(2,2-Dimethyl-indan-5-yl)-3-methyl-5-oxo-1,5-dihydro-pyrazol-4-ylidene]-hydrazino}-2′-hydroxy-biphenyl-3-carboxylic acid]", "values": [
      {"measurement": "EC50", "setting": "human TPO receptor", "result": 0.06, "unit": "µM"}
    ]}
  ]
}
